The test addresses T1, AtHPPD (Arabidopsis thaliana, UniProt P93836).
T1 construct: gene HPD; recombinant enzyme supplied by Guangfu Yang research team; Fe(II) enzyme; PDB 1TFZ used for docking only
T1 sequence (P93836 1-445): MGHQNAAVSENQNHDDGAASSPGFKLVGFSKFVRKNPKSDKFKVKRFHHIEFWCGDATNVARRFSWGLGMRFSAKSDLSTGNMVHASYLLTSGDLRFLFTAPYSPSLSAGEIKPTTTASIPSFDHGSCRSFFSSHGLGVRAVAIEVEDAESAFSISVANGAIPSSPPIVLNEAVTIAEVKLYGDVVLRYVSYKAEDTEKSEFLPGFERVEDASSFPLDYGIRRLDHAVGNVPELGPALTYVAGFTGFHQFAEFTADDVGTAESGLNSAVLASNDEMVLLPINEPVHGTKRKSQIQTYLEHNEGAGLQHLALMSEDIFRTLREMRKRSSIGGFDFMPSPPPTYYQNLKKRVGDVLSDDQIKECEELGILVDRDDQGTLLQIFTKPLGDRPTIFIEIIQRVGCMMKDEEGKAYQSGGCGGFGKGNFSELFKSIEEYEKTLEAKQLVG
The experiment in a line: HGD-coupled assay, maleylacetoacetate at […] nm. In kind it is biochemical.

SMILES strings stand for the structures. Like-named read-outs stand apart in the source and are kept apart here.

As usually defined, the IC50 is the concentration that gives 50% inhibition. `CS(=O)(=O)c1ccc(C(=O)C2C(=O)CCCC2=O)c([N+](=O)[O-])c1` [Control 1, mesotrione]: the half-inhibitory concentration (IC50) was found to be 204 nM.
As to `Cc1cc(O)c(C(=O)/C=C/c2ccccc2)c(=O)o1` [compound 3881, 3-cinnamoyl-4-hydroxy-6-methyl-2H-pyran-2-one], the IC50 (read-out: IC50) is 2490 nM.

Source of the values: article PMC5807903, “Combination of Virtual Screening Protocol by in Silico toward the Discovery of Novel 4-Hydroxyphenylpyruvate Dioxygenase Inhibitors” (Frontiers in Chemistry, 2018).
